These results are taken from PubChem BioAssay AID489006 (Sanford-Burnham Center for Chemical Genomics, 2010).

Molecules are shown by their SMILES. Calls of active or inactive are those of the source. The rule behind the calls is not given here.

The test concerns Jurkat NF-kB reporter, luminescence. The test is described as follows: Jurkat NF-kB signaling inhibitors – cell-based, luminescence, selectivity assay for B-cell receptor NF-kB inhibitor project, dose response (AID 489006).
`CCN(CC)CCOC(=O)c1ccc(NC(=O)COc2cc(=O)n(CC)c3ccccc23)cc1`: the IC50 is 43.8 µM (inactive). Then `C=CCOc1ccc(/C=C2\SC(=S)N(CCC(=O)O)C2=O)cc1`, with less than 0.16 µM; and `CCOc1ccc(-c2noc(CCC(=O)O)n2)cc1`, with 0.7 µM. The figure for `CCCS(=O)(=O)Nc1cccc(-c2ccc3nnc(C)n3n2)c1` is > 80 µM (inactive).

In the case of `Cc1cc(C)c(CN2CCN(C(=O)Cn3cnc4c(NCc5ccccc5)ncnc43)CC2)c(C)c1`, the IC50 is 69.9 µM (inactive).

Consider `COC(=O)[C@@H]1Cc2c([nH]c3ccccc23)C(C)(C)N1C(=O)CCl`, for which the IC50 was 1.73 µM. The figure for `Cc1cc(OC(=O)c2ccccc2Cl)cc(=O)n1C` is > 80 µM (inactive); for `CCOc1ccc(-c2nc(CSCC(=O)NC3CC3)c(C)o2)cc1` it is > 80 µM (inactive); for `CCN(CC)c1ccc(/C=N/N=C(c2ccccc2)c2ccccc2)c(O)c1` it is > 80 µM (inactive). In the case of `Cc1ccc(-c2nn3c(C)nnc3c3ccccc23)cc1S(=O)(=O)NC(C)(C)CO`, the IC50 was 23.9 µM (inactive).

For the compound `COc1cccc(/C=C2/SC(=S)N(CCCC(=O)Nc3ccc(O)cc3)C2=O)c1`, the IC50 is 29.5 µM (inactive).

Consider `CCOc1ccc(-c2c[n+]3c(n2-c2ccccc2)CCCCC3)cc1`, for which the IC50 was > 80 µM (inactive).

For the compound `O=C(CSCCO)Nc1ccc(C23CC4CC(CC(C4)C2)C3)cc1`, the IC50 is > 80 µM (inactive). Turning to `COc1cccc(Cn2nnc(C(=O)Nc3cc(Cl)ccc3OC)c2N)c1`, the IC50 was > 80 µM (inactive).

As to `O=C1CCCc2c1[nH]c1ccc(CN3CCCCC3)cc21`, the IC50 is > 80 µM (inactive). Take `COc1ccc(-c2n(Cc3ccccc3)c3ccccc3[n+]2Cc2ccccc2)cc1`: the IC50 is 42.7 µM (inactive). On to `COc1ccc2nc(C)cc(Sc3nc4ccccc4s3)c2c1`, for which the concentration for half-maximal inhibition (IC50) was 2.53 µM.

Turning to `COc1ccc(/C=C2\SC(=S)N(CCCC(=O)Nc3ccc(O)cc3)C2=O)cc1`, the IC50 is > 80 µM (inactive).

Take `O=C(c1cc2nc(-c3ccccc3)cc(-c3ccccc3)n2n1)N1CCN(C(=O)c2ccco2)CC1`: the IC50 was 31 µM (inactive). The figure for `Cc1cnc(NC(=O)Nc2ccc(Cl)cc2)s1` is > 80 µM (inactive). In the case of `Cc1ccc(/C=C2\SC(=S)N(CCCC(=O)NC3CCCC3)C2=O)cc1`, the IC50 was 0.73 µM. The figure for `CCOc1cc2nc(-c3ccc(OC)c(OC)c3)nc(N3CCOCC3)c2cc1OC` is 45.8 µM (inactive); for `Cc1[nH]c2ccccc2c1/C=N/Nc1nc(Nc2ccccc2)nc(N2CCOCC2)n1` it is 35.2 µM (inactive). Then `CC1=CC(C)(C)Nc2ccc(OC(=O)CN3C(=O)c4ccccc4C3=O)cc21`, with 1.28 µM. In the case of `CCOC(=O)c1nn(-c2ccccc2)c(C#N)c1NC(=O)c1nn(CC)cc1Br`, the IC50 is > 80 µM (inactive). The figure for `CCN(CC(=O)Nc1c(F)cccc1F)C(=O)c1cc(S(=O)(=O)N(CC)CC)ccc1N1CCCCC1` is > 80 µM (inactive); for `COc1ccc(OCc2cccc(C(=O)NN)c2)cc1` it is 5.14 µM. Then `CCn1c(=O)c2cc(C(=O)NCc3cccs3)sc2c2ccccc21`, with > 80 µM (inactive); and `NNC(=O)COc1ccc(-c2nccc(-c3ccc(F)cc3)n2)cc1`, with 1.79 µM. As for `Cc1nc2cc(-c3ccc(Cl)cc3)nn2c(C)c1CCC(=O)NC(C)c1ccc2c(c1)OCCO2` (stereo unspecified), the concentration for half-maximal inhibition (IC50) was 0.7 µM. With `COc1ccc(NC(=S)NCc2ccccc2)c(OC)c1`, the IC50 was > 80 µM (inactive).

For `CCOC(=O)C1CCN(c2ncnc3c2cnn3-c2ccc(OC)cc2)CC1`, the IC50 is > 80 µM (inactive). For `N=c1c2c(n(Cc3cccc(Cl)c3)c3c1CCC3)CCCC2`, the IC50 is 27.6 µM (inactive). As for `COc1ccc(/C=C2\SC(=S)N(CCC(=O)Nc3ccc(O)cc3)C2=O)cc1`, the IC50 is > 80 µM (inactive). Then `COc1ccc(-c2noc(CCCC(=O)O)n2)cc1`, with 1.4 µM; and `Cc1nc2cc(-c3cccc(F)c3)nn2c(C)c1CCC(=O)NC(C)CCc1ccco1` (stereo unspecified), with 4.14 µM; and `CCOC(=O)c1sc(NC(=O)c2cc(-c3ccccc3C)nc3ccccc23)c(C#N)c1C`, with > 80 µM (inactive). Then `Cc1ccc(/C=C2/SC(=S)N(CCCC(=O)Nc3ccc(O)cc3)C2=O)cc1`, with 19.8 µM; and `COc1cc(NC(=O)c2ccco2)c(OC)cc1NC(=O)c1cc(OC)c(OC)c(OC)c1`, with 23 µM (inactive); and `Cc1ccoc1C(=O)Nc1ccc(CC(=O)O)cc1`, with 0.26 µM. On to `Cc1cc2ccccn2c1C(=O)c1ccc(NN)c([N+](=O)[O-])c1`, for which the IC50 is > 80 µM (inactive).

With `CCn1c(=O)cc(OCC(=O)Nc2ccc(OC)c(OC)c2)c2ccccc21`, the IC50 is > 80 µM (inactive). The figure for `C=CCOC(=O)COc1cc(C)cc2oc(=O)c3c(c12)CCC3` is > 80 µM (inactive); for `COc1cc(OC)cc(-c2cc3nc(C)c(CCC(=O)Nc4nc(C)cs4)c(C)n3n2)c1` it is 5.28 µM. As for `COc1ccc(-c2ccc(N(C)C)cc2)cc1[C@H]1[C@H]2C=CC[C@@H](C)[C@@H]2C(=O)N1Cc1ccccc1`, the IC50 was > 80 µM (inactive). Take `CCOC(=O)/C=C(\C)Sc1cc(=O)oc2ccccc12`: the IC50 was 4 µM. On to `COc1ccc(-c2nn(C)c(=O)c3ccccc23)cc1NS(C)(=O)=O`, for which the IC50 was > 80 µM (inactive). In the case of `Cn1c(=O)cc(OCCCC(=O)NC2CCCC2)c2ccccc21`, the IC50 is 39.5 µM (inactive). Consider `COc1ccc(/C=C2/SC(=S)N(CCCC(=O)Nc3ccc(O)cc3)C2=O)cc1`, for which the IC50 was > 80 µM (inactive).

For `COc1cc(-c2nc3ccc(N4CCN(C)CC4)cc3[nH]2)cc(OC)c1OC`, the IC50 is > 80 µM (inactive). Regarding `COC(=O)c1c(NC(=O)c2cccc([N+](=O)[O-])c2)sc(C(N)=O)c1C`, the IC50 was > 80 µM (inactive). Then `O=C(CCCN1C(=O)/C(=C/c2ccccc2Cl)SC1=S)NNC(=O)c1ccccc1Cl`, with 1.76 µM; and `Cc1nnc2c3ccccc3c(-c3ccccc3)nn12`, with > 80 µM (inactive). The figure for `COc1cc(NC(=O)c2cc3c(C)nc4ccccc4c3o2)cc(OC)c1OC` is > 80 µM (inactive); for `N=c1ccn2c(n1)OC1C(O)C(CO)OC12` (stereo unspecified) it is 2.21 µM; for `CCN(CC(=O)Nc1c(F)cccc1F)C(=O)c1cc(S(=O)(=O)N(C)C)ccc1N1CCCC1` it is > 80 µM (inactive). Take `CCCc1nc2c(C)cc(-c3nc4ccccc4n3C)cc2n1Cc1ccc(-c2ccccc2C(=O)O)cc1`: the IC50 was > 80 µM (inactive). Then `CCOCCCNc1nc2c(C)cccn2c(=O)c1/C=C1\SC(=S)N(C(C)CC)C1=O` (stereo unspecified), with > 80 µM (inactive); and `O=C(NCCCN1CCOCC1)c1cc(-c2ccc(Br)cc2)on1`, with 59.5 µM (inactive); and `N#CC1=C(N)Oc2cc(Nc3ccccc3)ccc2C1c1ccncc1` (stereo unspecified), with 60.6 µM (inactive). The figure for `CCOc1cc(/C=N\Nc2nc(Nc3ccccc3)nc(N3CCOCC3)n2)ccc1OC(=O)c1ccco1` is > 80 µM (inactive); for `COc1ccc(-n2c(-c3ccc(Cl)cc3)c[n+]3c2CCc2ccccc2-3)cc1` it is 28.6 µM (inactive). Regarding `O=[N+]([O-])c1ccc(Sc2cc[n+]([O-])c3ccccc23)c([N+](=O)[O-])c1`, the IC50 was 6.03 µM. Then `CCN(C(=O)CN1C(=O)NC(c2ccccc2)(c2ccc(C)c(C)c2)C1=O)C1CCCCC1` (stereo unspecified), with 38.9 µM (inactive). The figure for `CC1CN(S(=O)(=O)c2ccc(C(=O)Nc3nc(-c4cc5ccccc5o4)cs3)cc2)CC(C)O1` (stereo unspecified) is 49.9 µM (inactive). With `CC(=C\c1ccccc1)/C=C1/SC(=O)N(CCCC(=O)Nc2ccc(C(=O)O)cc2)C1=O`, the IC50 is > 80 µM (inactive). The figure for `CNC(=O)CSc1nc2nn(-c3ccccc3)c(=O)c-2c2n1CCCCC2` is > 80 µM (inactive); for `O=C(CN1C(=O)c2ccccc2S1(=O)=O)c1ccc(Cl)cc1Cl` it is 0.78 µM. For `C/C=C(/C)C(=O)OC1Cc2c(ccc3ccc(=O)oc23)OC1(C)C` (stereo unspecified), the IC50 was > 80 µM (inactive). With `O=C(NNC(=O)c1ccccc1O)c1ccc(Cl)c(S(=O)(=O)N2CCc3ccccc32)c1`, the IC50 is > 80 µM (inactive). The figure for `CCC(C)NC(=O)c1c(N)n(/N=C/c2ccccn2)c2nc3ccccc3nc12` (stereo unspecified) is 22.7 µM (inactive); for `O=C(NNC(=O)C12CC3CC(CC(C3)C1)C2)c1cccc(O)c1` it is > 80 µM (inactive).

On to `Cc1nc2cc(-c3ccccc3)nn2c(C)c1CCC(=O)N1CCC2(CC1)OCCO2`, for which the IC50 is > 80 µM (inactive). Then `CC1=CC(C)(C)Nc2ccc(OC(=O)C(C)N3C(=O)c4ccccc4C3=O)cc21` (stereo unspecified), with 1.19 µM; and `O=C(O)CCSc1nc2ccccc2s1`, with 6.75 µM. On to `O=C(CCCN1C(=O)/C(=C/c2ccccc2Cl)SC1=S)Nc1cccnc1`, for which the 50% inhibitory concentration (IC50) was 6.58 µM. Then `Cc1ccccc1-n1c(SCc2c(C)noc2C)nnc1-c1c[nH]c2ccccc12`, with > 80 µM (inactive); and `COc1cc(Br)c(C(=O)c2nccc3cc(OC)c(OC)cc23)cc1OC`, with > 80 µM (inactive). Then `COc1ccc(C2=NCc3nnc(C)n3-c3ccc(Cl)cc32)cc1Cl`, with 36.4 µM (inactive). As to `Cc1nc([N+](=O)[O-])c(Sc2nc3ccc([N+](=O)[O-])cc3[nH]2)n1Cc1ccccc1`, the IC50 was 7.42 µM.

On to `O=C(CN1C(=O)c2ccccc2S1(=O)=O)c1ccc(OC(F)F)cc1`, for which the IC50 is 3.15 µM. Then `Cc1cc(C)nc(Sc2ccc([N+](=O)[O-])cc2[N+](=O)[O-])n1`, with 11.7 µM; and `CCOc1ccc(-c2nc(CSCC(=O)NCc3ccco3)c(C)o2)cc1`, with 64 µM (inactive).

`NC(=O)C1CCN(C(=O)COc2ccc3ccccc3c2Br)CC1`: the IC50 was > 80 µM (inactive). Regarding `Cc1cc(C)cc(NC(=O)Nc2ccc(NC(=O)c3ccccc3O)cc2)c1`, the IC50 was > 80 µM (inactive). For the compound `CCCCCC/C=C/c1ccc(OC)c([C@H]2[C@H]3C=CC[C@@H](C)[C@@H]3C(=O)N2Cc2ccccc2)c1`, the IC50 was > 80 µM (inactive).

The term IC50 denotes the concentration that inhibits the measured activity by half.
